From US20230124862A1, “BISMUTH THIOL COMPOUNDS AND COMPOSITIONS AND METHODS OF TREATING MICROBIAL CO-INFECTIONS” (Microbion Corporation, priority 2020, published 2023)
Values after ≈ are worked out from the molar mass of the structure shown. Values joined by “and” are separate entries in the source; they are usually repeats but may differ in a detail not shown here. Equal values may be shown once. Read-outs that look alike come from different tables or passages of the source. Starred links: 1 amine or outer side, 2 acyl side, 3 side chain; linkers in the order of their positions; H or OH if unused. Positions of bridges follow the written chain, without caps; N, C: chain ends. Non-standard residues stand in square brackets, D forms with d. Residues, ends and D or L forms follow the SMILES beside them. *: point of attachment. hTyr(3S-OH,4S-OH,3'-OSO3H) = N[C@H](C(=O)O)[C@H](O)[C@@H](O)c1ccc(O)c(OS(=O)(=O)O)c1; Orn(4R-OH,5R-OH) = O=C([C@H](C[C@@H](O)[C@@H](O)N[*:3])N[*:1])[*:2]; Pro(3S-OH,4S-Me) = C[C@H]1CN[C@H](C(=O)O)[C@H]1O; X1 = CCCCCOc1ccc(-c2cc(-c3ccc(C(=O)*)cc3)no2)cc1; Gln(3R-OH) = NC(=O)C[C@@H](O)[C@H](N)C(=O)O; Hyp = O=C(O)[C@@H]1C[C@@H](O)CN1

Tests used:
[1] = tested on: S. aureus ATCC 29213; conditions: control strain ATCC 29213; cited from earlier work
[2] = tested on: Candida krusei; experiment: Antifungal broth microdilution (Example 13); type: cell-based
[3] = tested on: Aspergillus spp.; experiment: Antifungal broth microdilution (Example 13); type: cell-based, A. niger, A. terreus, A. fumigatus, A. flavus
[4] = tested on: C. parapsilosis ATCC 22019; experiment: Antifungal broth microdilution (Example 13), QC organism; type: cell-based, Candida parapsilosis; conditions: comparators, single value
[5] = tested on: S. aureus ATCC 29213; experiment: MIC control strain; conditions: QC organism, Example 13
[6] = tested on: Candida krusei; conditions: C. krusei ATCC 6258, CLSI established QC range, cited from earlier work
[7] = tested on: C. parapsilosis ATCC 22019; conditions: cited from earlier work
[8] = tested on: E. coli ATCC 25922; experiment: MIC control strain; conditions: QC organism, Example 13
[9] = tested on: Enterococcus spp.; experiment: Broth microdilution MIC (Example 11); type: cell-based, E. faecalis, E. faecium; conditions: Lev^R Cip^R Ery^R
[10] = tested on: Enterobacteriaceae; conditions: E. coli MMX 102 (ATCC 25922); CLSI QC ranges shown in parenthesis; cited from earlier work
[11] = tested on: S. aureus; conditions: S. aureus MMX 101 (ATCC 29213); cited from earlier work
[12] = tested on: Enterobacteriaceae; experiment: Broth microdilution MIC (Example 11); type: cell-based, E. coli, K. pneumoniae, Enterobacter cloacae
[13] = tested on: P. aeruginosa and A. baumannii; conditions: P. aeruginosa MMX 103 (ATCC 27853); CLSI QC ranges shown in parenthesis; cited from earlier work
[14] = tested on: S. aureus; experiment: Broth microdilution MIC (Example 11); type: cell-based, Staphylococcus aureus
[15] = tested on: P. aeruginosa and A. baumannii; experiment: Broth microdilution MIC (Example 11); type: cell-based, Pseudomonas aeruginosa, Acinetobacter baumannii

CC[C@H]1OC(=O)[C@H](C)[C@@H](O[C@H]2C[C@@](C)(OC)[C@@H](O)[C@H](C)O2)[C@H](C)[C@@H](O[C@@H]2O[C@H](C)C[C@H](N(C)C)[C@H]2O)[C@](C)(OC)C[C@@H](C)C(=O)[C@H](C)[C@@H](O)[C@]1(C)O [Clarithromycin, reference compound]
Expected MIC: goal (acceptable range) [1]: 0.25 (0.12-0.5) mcg/mL

CCCCCOc1ccc(-c2cc(-c3ccc(C(=O)N[C@H]4C[C@@H](O)[C@@H](O)NC(=O)[C@@H]5[C@@H](O)[C@@H](C)CN5C(=O)[C@H]([C@H](O)CC(N)=O)NC(=O)[C@H]([C@H](O)[C@@H](O)c5ccc(O)c(OS(=O)(=O)O)c5)NC(=O)[C@@H]5C[C@@H](O)CN5C(=O)[C@H]([C@@H](C)O)NC4=O)cc3)no2)cc1 [Micafungin] (X1-[Orn(4R-OH,5R-OH)]T[Hyp][hTyr(3S-OH,4S-OH,3'-OSO3H)][Gln(3R-OH)][Pro(3S-OH,4S-Me)]; lactam 1-C)
MIC 24 hr [2]: 0.5 µg/mL (≈ 0.394 µM)
MIC 48 hr [2]: 0.5 µg/mL (≈ 0.394 µM)
MIC 24 hr (MEC) [3]: 0.06 (MEC) and 0.03 (MEC)
MIC 48 hr (MEC) [3]: 0.008 (MEC)
MIC 24 hr [4]: 0.5 µg/mL (≈ 0.394 µM)
MIC 48 hr [4]: 2 µg/mL (≈ 1.57 µM)
MIC 24 hr [5]: >64
QC Range 24 hr [6]: 0.12-0.5
QC Range 48 hr [6]: 0.12-0.5
QC Range 24 hr [7]: 0.5-2
QC Range 48 hr [7]: 0.5-4
MIC 24 hr [8]: >64

CC[C@H](C)C[C@H](C)CCCCCCCCC(=O)N[C@H]1C[C@@H](O)[C@@H](NCCN)NC(=O)[C@@H]2[C@@H](O)CCN2C(=O)[C@H]([C@H](O)CCN)NC(=O)[C@H]([C@H](O)[C@@H](O)c2ccc(O)cc2)NC(=O)[C@@H]2C[C@@H](O)CN2C(=O)[C@H]([C@@H](C)O)NC1=O [Caspofungin]
MIC 24 hr ([2]; C. krusei ATCC 6258, 24 hr, comparators, single value): 0.25 µg/mL (≈ 0.229 µM)
MIC 48 hr ([2]; C. krusei ATCC 6258, 48 hr, comparators, single value): 0.25 µg/mL (≈ 0.229 µM)
MIC 24 hr (MEC) ([3]; A. flavus ATCC 204304, 24 hr, MEC): 0.12 (MEC)
MIC 48 hr (MEC) ([3]; A. flavus ATCC 204304, 48 hr, MEC): 0.06 (MEC)
MIC 24 hr (MEC) ([3]; A. fumigatus ATCC MYA-3626, 24 hr, MEC): 0.06 (MEC)
MIC 48 hr (MEC) ([3]; A. fumigatus ATCC MYA-3626, 48 hr, MEC): 0.06 (MEC)
MIC 24 hr [4]: 0.25 µg/mL (≈ 0.229 µM)
MIC 48 hr [4]: 0.5 µg/mL (≈ 0.457 µM)
MIC 24 hr [5]: >64
QC Range 24 hr [6]: 0.12-1
QC Range 48 hr [6]: 0.25-2
QC Range 24 hr ([7]; C. parapsilosis ATCC 22019, CLSI established QC range, 24 hr): 0.25-1
QC Range 48 hr ([7]; C. parapsilosis ATCC 22019, CLSI established QC range, 48 hr): 0.5-4
MIC 24 hr [8]: >64

Gentamicin
MIC ([9]; E. faecalis MMX 8960, VRE): >64 µg/mL
MIC ([9]; E. faecalis MMX 8961, VRE): 8 µg/mL
MIC ([9]; E. faecalis MMX 8962, VRE): >64 µg/mL
MIC ([9]; E. faecium MMX 485, VRE vanA): >64 µg/mL
MIC ([9]; E. faecium MMX 752, VRE vanA): >64 µg/mL
MIC, CLSI QC range [10]: (0.25-1) μg/mL
CLSI QC range of MIC [11]: (0.12-1) μg/mL
MIC ([12]; E. cloacae MMX 5981 (ATCC BAA-2468), NDM-1, Lev^R MEM^R CAZ^R Gm^R): >64 µg/mL
MIC ([12]; E. coli MMX 102 (ATCC 25922), QC): 1 µg/mL
MIC ([12]; E. coli MMX 5980 (ATCC BAA-2469), NDM-1, Lev^R MEM^R CAZ^R Gm^R): >64 µg/mL
MIC ([12]; E. coli MMX 8423, ESBL, Lev^R CAZ^R Gm^R): 64 µg/mL
MIC ([12]; E. coli MMX 8424, ESBL, CAZ^R): 0.25 µg/mL
MIC ([12]; E. coli MMX 8425, ESBL, Lev^R CAZ^R Gm^R): >64 µg/mL
MIC ([12]; K. pneumoniae MMX 4622, KPC-2, MEM^R CAZ^R): 0.25 µg/mL
MIC ([12]; K. pneumoniae MMX 4623, KPC-2, MEM^R CAZ^R Gm^R): 64 µg/mL
MIC ([12]; K. pneumoniae MMX 4653, KPC-3, Lev^R MEM^R CAZ^R): 1 µg/mL
MIC ([12]; K. pneumoniae MMX 4683, KPC-2, Lev^R MEM^R CAZ^R): 1 µg/mL
MIC ([12]; K. pneumoniae MMX 4684, ESBL, MEM^R): 0.25 µg/mL
MIC ([12]; K. pneumoniae MMX 4685, ESBL, Lev^R MEM^R CAZ^R): 1 µg/mL
MIC ([12]; K. pneumoniae MMX 4694, KPC-3, Lev^R MEM^R CAZ^R): 8 µg/mL
MIC ([12]; K. pneumoniae MMX 5979, NDM-1, Lev^R MEM^R CAZ^R Gm^R): >64 µg/mL
MIC, CLSI QC range [13]: (0.5-2) μg/mL
MIC ([14]; S. aureus MMX 101 (ATCC 29213), QC, MSSA): 0.12 µg/mL
MIC ([14]; S. aureus MMX 5373, MRSA, Lev^R Cip^R CC^R Ery^R Ox^R): 0.25 µg/mL
MIC ([14]; S. aureus MMX 6311, MRSA, Lev^R Cip^R CC^R Ery^R Ox^R): 0.25 µg/mL
MIC ([14]; S. aureus MMX 9203, MRSA, Lev^R Cip^R Ery^R Ox^R): 0.12 µg/mL
MIC ([14]; S. aureus MMX 9204, MRSA, Lev^R Cip^R Ery^R Ox^R): 0.25 µg/mL
MIC ([14]; S. aureus MMX 9205, MRSA, Lev^R Cip^R CC^R Ery^R Ox^R): 0.25 µg/mL
MIC ([15]; A. baumannii MMX 2592, MDR, Lev^R Cip^R MEM^R CAZ^R Gm^R): >64 µg/mL
MIC ([15]; A. baumannii MMX 2593, MDR, Lev^R Cip^R MEM^R CAZ^R Gm^R): >64 µg/mL
MIC ([15]; A. baumannii MMX 3372, MDR, Cip^R MEM^1 CAZ^1): 0.5 µg/mL
MIC ([15]; A. baumannii MMX 3373, Sensitive): 0.12 µg/mL
MIC ([15]; A. baumannii MMX 4651 (NCTC 13304), MDR: OXA-27, Lev^R Cip^R MEM^R CAZ^R Gm^1): 8 µg/mL
MIC ([15]; P. aeruginosa MMX 103 (ATCC 27853), QC): 1 µg/mL
MIC ([15]; P. aeruginosa MMX 1381, MDR, Lev^R Cip^R MEM^R CAZ^R): 8 µg/mL
MIC ([15]; P. aeruginosa MMX 2562, MDR, Lev^R Cip^R MEM^R CAZ^R): 8 µg/mL
MIC ([15]; P. aeruginosa MMX 3991, MDR, Lev^R Cip^R MEM^R CAZ^R): 4 µg/mL
MIC ([15]; P. aeruginosa MMX 4654, IMP-7, Lev^R Cip^R MEM^R CAZ^R): >64 µg/mL
MIC ([15]; P. aeruginosa MMX 4697, VIM-2, Lev^R Cip^R MEM^R CAZ^R): 4 µg/mL
